In patent US9212132B2, “(Meth)acrylic acid ester, activation energy ray curing composition, and inkjet recording ink” (Ricoh Company Ltd., priority 2011, dated 2015):

How the values were obtained:
[1] = Evaluation of photopolymerization reactivity (Photo-DSC); format: physicochemical; conditions: ink: 950 mg monomer compound + 50 mg IRGACURE 907; 365 nm, 200 mW/cm^2
Protocol: Inks for evaluation were each prepared by mixing 950 mg of the monomer compound presented in a respective column of each Example or Comparative Example in Table 1 with 50 mg of 2-methyl-1-[4-(methylthio)phenyl]-2-morpholinopropan-1-one (IRGACURE 907, manufactured by BASF Japan Ltd.) serving as a polymerization initiator, by means of a magnetic stirrer.
An evaluation test for photopolymerization reactivity was performed on each ink using a measuring device combining DSC-7020 manufactured by Seiko Instruments Inc. with a spot light source (LA-410UV) manufactured by HAYASHI WATCH-WORKS CO., LTD. (referred to as Photo-DSC hereinafter). As for the light for radiation, light having wavelength of 365 nm was used, and the light quantity was set to 200 mW/cm^2.
The calorific value of the polymerization reaction carried out after radiation of light was measured by Photo-DSC. A measurement of the calorific value, which was obtained when light was applied for sufficient time to complete a polymerization reaction of the monomer compound, was performed twice on one sample. The calorific value obtained with the first measurement contains the calorific value from radiation of light as well as the calorific value from the polymerization reaction of the monomer compound. Therefore, the sample which completed the polymerization reaction by the first measurement was subjected to radiation of light under the same condition, and the calorific value of the heat other than the heat generated from the polymerization reaction of the monomer compound was measured. The calorific value of the polymerization reaction of the monomer compound was determined with a difference between the calorific value obtained in the first measurement and the calorific value obtained in the second measurement.
As for the exothermic characteristic thereof, the time required to achieve the maximum calorific value from the time for starting radiation of light was determined as T1 (sec.), which was used as an index for comparing the speed of the photopolymerization reaction.

[2] = Evaluation of photocuring ability (photorheometer); format: physicochemical; conditions: 365 nm; for Photocuring (photorheometer) Elastic modulus: ink: 950 mg monomer + 50 mg IRGACURE 907, 50 mW/cm^2, 10 μm gap, saturated elastic modulus; for Photocuring (photorheometer) Curing energy: light energy applied until elastic modulus saturated; for Photocuring (photorheometer) Curing energy / Photocuring result in words (curing state, elastic modulus): 50 mW/cm^2
Protocol: An evaluation for curing ability from photopolymerization was performed on each ink using a measuring device combining a rheometer VAR200AD, manufactured by REOLOGICA Instruments AB, with an LED light source (LIGHTNINGCURE LC-L1) manufactured by Hamamatsu Photonics K.K. (referred to as Photorheometer, hereinafter).
A measurement was performed in the following manner. A sample was placed in a gap of 10 μm between a pair of corm plates each having a diameter of 20 mm, and light (365 nm, 50 mW/cm^2) emitted from the LED light source was applied to the sample. A change in viscoelsticity caused by curing was measured, and the time when the elastic modulus (Pa) was saturated was determined as completion of curing. Based on the measurement result, the terminal point of the elastic modulus was determined, which was determined as an index of a curing level. Typically, the level of 1×10^4 (Pa) is a level where the sample is completely cured. Moreover, light energy (curing energy) applied until the elastic modulus was saturated was calculated by the product of light radiation intensity (here, which was 50 mW/cm^2) and a period (sec.) for light radiation.

In the case of C=C(C)C(=O)OCCN1CCOCC1 [Commercial product (e), reference compound], the “Photopolymerization reactivity (Photo DSC) T1, time required to achieve the maximum calorific value from start of light radiation” value (shortened to “Photopolymerization reactivity”) [1] was 30.3 s, the “Photocuring (photorheometer) Elastic modulus” value [2] was 8.6*10^4 Pa and the “Photocuring (photorheometer) Curing energy” value [2] was 2,050 mJ/cm^2.
For C=C(C)C(=O)OC1CCN(C(=O)OCC)CC1 [F-2], the “Photopolymerization reactivity” value [1] was 7.0 s, the “Photocuring (photorheometer) Elastic modulus” value [2] was 9.4*10^4 Pa and the “Photocuring (photorheometer) Curing energy” value [2] was 430 mJ/cm^2.
In the case of C=C(C)C(=O)OCC(COC(=O)N(CC)CC)OC(=O)C(=C)C (centres unmarked) [G-4], the “Photopolymerization reactivity” value [1] was 4.8 s, the “Photocuring (photorheometer) Elastic modulus” value [2] was 1.0*10^5 Pa and the “Photocuring (photorheometer) Curing energy” value [2] was 210 mJ/cm^2.
For C=CC(=O)OCCN1CCOCC1 [Commercial product (d), reference compound], the “Photopolymerization reactivity” value [1] was 4.5 s, the “Photocuring (photorheometer) Elastic modulus” value [2] was 1.3*10^4 Pa and the “Photocuring (photorheometer) Curing energy” value [2] was 365 mJ/cm^2.
With C=C(C)C(=O)OCCOC(=O)N(CC)CC [B-2] the “Photopolymerization reactivity” value [1] was 10.9 s, the “Photocuring (photorheometer) Elastic modulus” value [2] was 8.0*10^4 Pa and the “Photocuring (photorheometer) Curing energy” value [2] was 1,950 mJ/cm^2.
In the case of C=CC(=O)OC1CCN(C(=O)OCC)CC1 [F-1], the “Photopolymerization reactivity” value [1] was 3.2 s, the “Photocuring (photorheometer) Elastic modulus” value [2] was 8.4*10^4 Pa and the “Photocuring (photorheometer) Curing energy” value [2] was 150 mJ/cm^2.
For C=C(C)C(=O)OCCOc1ccccc1 [Commercial product (b), reference compound], the “Photopolymerization reactivity” value [1] was 19.3 s, the “Photocuring (photorheometer) Elastic modulus” value [2] was 8.0*10^4 Pa and the “Photocuring (photorheometer) Curing energy” value [2] was 2,020 mJ/cm^2.
In the case of C=CC(=O)OCC(CC)(COC(=O)C=C)COC(=O)N(CC)CC [J-3], the “Photopolymerization reactivity” value [1] was 2.4 s, the “Photocuring (photorheometer) Elastic modulus” value [2] was 1.0*10^5 Pa and the “Photocuring (photorheometer) Curing energy” value [2] was 100 mJ/cm^2.
With C=CC(=O)OCCOC(=O)N(CC)CC [B-1] the “Photopolymerization reactivity” value [1] was 3.2 s, the “Photocuring (photorheometer) Elastic modulus” value [2] was 9.4*10^3 Pa and the “Photocuring (photorheometer) Curing energy” value [2] was 520 mJ/cm^2.
In the case of C=CC(=O)OCC(COC(=O)N(CC)CC)OC(=O)C=C (centres unmarked) [G-3], the “Photopolymerization reactivity” value [1] was 2.4 s, the “Photocuring (photorheometer) Elastic modulus” value [2] was 1.0*10^5 Pa and the “Photocuring (photorheometer) Curing energy” value [2] was 140 mJ/cm^2.
For C=CC(=O)OCCOC(=O)N1CCCCC1 [E-1], the “Photopolymerization reactivity” value [1] was 4.5 s, the “Photocuring (photorheometer) Elastic modulus” value [2] was 5.0*10^4 Pa and the “Photocuring (photorheometer) Curing energy” value [2] was 380 mJ/cm^2.
For C=C(C)C(=O)OCC(CC)(COC(=O)C(=C)C)COC(=O)N(CC)CC [J-4], the “Photopolymerization reactivity” value [1] was 3.0 s, the “Photocuring (photorheometer) Elastic modulus” value [2] was 1.0*10^5 Pa and the “Photocuring (photorheometer) Curing energy” value [2] was 110 mJ/cm^2.
For C=C(C)C(=O)OCCOC(=O)N1CCOCC1 [D-2], the “Photopolymerization reactivity” value [1] was 7.0 s, the “Photocuring (photorheometer) Elastic modulus” value [2] was 7.6*10^4 Pa and the “Photocuring (photorheometer) Curing energy” value [2] was 380 mJ/cm^2.
In the case of C=CC(=O)OCCOC(=O)NCCCC [Commercial product (c), reference compound], the “Photopolymerization reactivity” value [1] was 2.5 s, the “Photocuring (photorheometer) Elastic modulus” value [2] was 3.2*10^4 Pa and the “Photocuring (photorheometer) Curing energy” value [2] was 210 mJ/cm^2.
In the case of C=CC(=O)OCCOc1ccccc1 [Commercial product (a), reference compound], the “Photopolymerization reactivity” value [1] was 2.5 s, the “Photocuring (photorheometer) Elastic modulus” value [2] was 4.8*10^4 Pa and the “Photocuring (photorheometer) Curing energy” value [2] was 200 mJ/cm^2.
In the case of C=C(C)C(=O)OCCSCC [Ref. Syn. Ex. 2, 2-methacryloxyethylethyl sulfide, reference compound], the “Photopolymerization reactivity” value [1] was 10.3 s, the “Photocuring result in words (curing state, elastic modulus)” value (from here on “Photocuring result in words”) [2] was “(not cured)” and the “Photocuring result in words” value ([2]; listed as Comparative Example 7) was “extremely low elastic modulus”. The “Photocuring (photorheometer) Elastic modulus” value [2] was less than 1.0 Pa.
With C=C(C)C(=O)OCCOC(=O)N1CCCCC1 [E-2] the “Photopolymerization reactivity” value [1] was 12.0 s, the “Photocuring (photorheometer) Elastic modulus” value [2] was 9.0*10^4 Pa and the “Photocuring (photorheometer) Curing energy” value [2] was 840 mJ/cm^2.
With C=CC(=O)OCCOC(=O)N1CCOCC1 [D-1] the “Photopolymerization reactivity” value [1] was 3.2 s, the “Photocuring (photorheometer) Elastic modulus” value [2] was 7.9*10^4 Pa and the “Photocuring (photorheometer) Curing energy” value [2] was 175 mJ/cm^2.
In the case of C=CC(=O)OCCSCC [Ref. Syn. Ex. 1, 2-acryloxy ethylethyl sulfide, reference compound], the “Photopolymerization reactivity” value [1] was 2.5 s, the “Photocuring result in words” value [2] was “(not cured)” and the “Photocuring result in words” value ([2]; listed as Comparative Example 4) was “extremely low elastic modulus”. The “Photocuring (photorheometer) Elastic modulus” value [2] was 1.1*10^3 Pa.
